# Columns and labels:
# ERα [1] = target: T1, ERα (Homo sapiens, UniProt P03372); test: Immunoblot analysis of ERα degradation in LCC-2 cells; format: cell-based; conditions: 5 μmol/L over 12 h
# T1 sequence (P03372 1-595): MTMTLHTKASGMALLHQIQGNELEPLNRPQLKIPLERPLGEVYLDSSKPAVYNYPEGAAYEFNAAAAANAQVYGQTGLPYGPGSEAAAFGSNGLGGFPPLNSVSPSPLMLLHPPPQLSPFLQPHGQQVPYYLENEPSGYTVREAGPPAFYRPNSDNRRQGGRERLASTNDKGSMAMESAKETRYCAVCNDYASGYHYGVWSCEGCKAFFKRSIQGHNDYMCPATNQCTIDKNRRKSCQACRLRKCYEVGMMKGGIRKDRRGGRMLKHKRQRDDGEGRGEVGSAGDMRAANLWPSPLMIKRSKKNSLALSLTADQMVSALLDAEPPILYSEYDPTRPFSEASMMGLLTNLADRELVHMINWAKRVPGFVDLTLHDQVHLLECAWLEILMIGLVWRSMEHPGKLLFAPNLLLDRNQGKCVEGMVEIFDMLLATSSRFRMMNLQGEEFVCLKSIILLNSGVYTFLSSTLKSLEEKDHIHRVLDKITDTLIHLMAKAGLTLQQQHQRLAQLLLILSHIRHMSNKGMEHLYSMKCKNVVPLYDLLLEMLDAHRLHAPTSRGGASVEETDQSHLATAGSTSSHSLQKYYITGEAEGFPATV
# ERα [2] = target: T1, ERα; test: Immunoblot analysis of ERα degradation in MCF-7 cells; format: cell-based
smiles,measurement,setting,value
"CC(C)=CC(=O)Nc1ccc(C2=C(c3ccc(O)cc3)C3OC2CC3S(=O)(=O)N(CC(F)(F)F)c2ccc(O)cc2)cc1 (stereo not shown) [Compound 29c, N-(4-(3-(4-Hydroxyphenyl)-5-(N-(4-hydroxyphenyl)-N-(2,2,2-trifluoroethyl)sulfamoyl)-7-oxabicyclo[2.2.1]hept-2-en-2-yl)phenyl)-3-methylbut-2-enamide]","ERα degradation time course, LCC-2",ERα [1],completely degraded
same,"ERα degradation time course, MCF-7",ERα [2]; 5 μmol/L over 24 h,completely degraded
same,ERα degradation (immunoblot) at 1 μmol/L,"ERα [2]; MCF-7 cells, 1 μmol/L",efficient ability to degrade ERα
same,ERα degradation (immunoblot),"ERα [2]; MCF-7 cells, 1 or 5 μmol/L",effective in inducing ERα degradation

# Reference: PMC10692362 (Acta Pharmaceutica Sinica. B, 2023)
